In ChEMBL document CHEMBL1127439, “Structure-activity relationship studies of central nervous system agents. 13. 4-[3-(Benzotriazol-1-yl)propyl]-1-(2-methoxyphenyl)piperazine, a new putative 5-HT1A receptor antagonist, and its analogs” (J Med Chem, 1994):

How the values were obtained:
[1] = system: Mus musculus; assay: Effect on body temperature in mice at intraperitoneal dosage of 4 mg/kg, (compound administered 30 min before the test) after 75 min; assay type: functional
[2] = system: Rattus norvegicus; assay: Tested for the effect on 8-OH-DPAT-induced lower lip retraction (LLR) in rat at dosage of 2 mg/kg; assay type: functional
[3] = system: Mus musculus; assay: Effect on 8-OH-DPAT-induced hypothermia in mice (5 mg/kg) at intraperitoneal dosage of 1 mg/kg of compound after 15 mins; assay type: functional
[4] = system: Mus musculus; assay: Effect on 8-OH-DPAT-induced hypothermia in mice (5 mg/kg) at intraperitoneal dosage of 8 mg/kg of compound after 60 mins; assay type: functional
[5] = system: Rattus norvegicus; assay: Tested for the effect on 8-OH-DPAT-induced behavior in reserpine pretreated rat against forepaw treading at dosage of 2 mg/kg; assay type: functional
[6] = system: Mus musculus; assay: Effect on body temperature in mice at intraperitoneal dosage of 1 mg/kg, (compound administered 30 min before the test) after 75 min; assay type: functional
[7] = system: Mus musculus; assay: Effect on 8-OH-DPAT-induced hypothermia in mice (5 mg/kg) at intraperitoneal dosage of 4 mg/kg of compound after 45 mins; assay type: functional
[8] = system: Mus musculus; assay: Effect on body temperature in mice at intraperitoneal dosage of 4 mg/kg, (compound administered 30 min before the test) after 30 min; assay type: functional
[9] = system: Rattus norvegicus; assay: Tested for the effect on 8-OH-DPAT-induced lower lip retraction (LLR) in rat at dosage of 8 mg/kg; assay type: functional
[10] = system: Mus musculus; assay: Effect on 8-OH-DPAT-induced hypothermia in mice (5 mg/kg) at intraperitoneal dosage of 1 mg/kg of compound after 45 mins; assay type: functional
[11] = system: Mus musculus; assay: Effect on body temperature in mice at intraperitoneal dosage of 2 mg/kg, (compound administered 30 min before the test) after 30 min; assay type: functional
[12] = system: Mus musculus; assay: Effect on body temperature in mice at intraperitoneal dosage of 4 mg/kg, (compound administered 30 min before the test) after 45 min; assay type: functional
[13] = system: Rattus norvegicus; assay: Tested for the induction of lower lip retraction (LLR) by the investigated compounds in rat at dosage of 16 mg/kg; assay type: functional
[14] = system: Rattus norvegicus; assay: Tested for the induction of lower lip retraction (LLR) by the investigated compounds in rat at dosage of 4 mg/kg; assay type: functional
[15] = system: Mus musculus; assay: Effect on body temperature in mice at intraperitoneal dosage of 1 mg/kg, (compound administered 30 min before the test) after 30 min; assay type: functional
[16] = system: Mus musculus; assay: Effect on 8-OH-DPAT-induced hypothermia in mice (5 mg/kg) at intraperitoneal dosage of 2 mg/kg of compound after 15 mins; assay type: functional
[17] = system: Mus musculus; assay: Effect on 8-OH-DPAT-induced hypothermia in mice (5 mg/kg) at intraperitoneal dosage of 2 mg/kg of compound after 60 mins; assay type: functional
[18] = target: Serotonin 2 (5-HT2) receptor (Rattus norvegicus, UniProt P30994+P08909+P14842); assay: Tested in vitro for receptor binding affinity against 5-hydroxytryptamine 2 receptor using radioligand [3H]ketanserin; assay type: protein assay
[19] = system: Mus musculus; assay: Effect on 8-OH-DPAT-induced hypothermia in mice (5 mg/kg) at intraperitoneal dosage of 8 mg/kg of compound after 30 mins; assay type: functional
[20] = system: Rattus norvegicus; assay: Tested for the effect on 8-OH-DPAT-induced behavior in reserpine pretreated rat against flat body posture at dosage of 16 mg/kg; assay type: functional
[21] = target: T1, 5-hydroxytryptamine receptor 1A (Rattus norvegicus, UniProt P19327); assay: Tested in vitro for receptor binding affinity against 5-hydroxytryptamine 1A receptor using radioligand [3H]8-OH-DPAT
T1 sequence (P19327 whole entry): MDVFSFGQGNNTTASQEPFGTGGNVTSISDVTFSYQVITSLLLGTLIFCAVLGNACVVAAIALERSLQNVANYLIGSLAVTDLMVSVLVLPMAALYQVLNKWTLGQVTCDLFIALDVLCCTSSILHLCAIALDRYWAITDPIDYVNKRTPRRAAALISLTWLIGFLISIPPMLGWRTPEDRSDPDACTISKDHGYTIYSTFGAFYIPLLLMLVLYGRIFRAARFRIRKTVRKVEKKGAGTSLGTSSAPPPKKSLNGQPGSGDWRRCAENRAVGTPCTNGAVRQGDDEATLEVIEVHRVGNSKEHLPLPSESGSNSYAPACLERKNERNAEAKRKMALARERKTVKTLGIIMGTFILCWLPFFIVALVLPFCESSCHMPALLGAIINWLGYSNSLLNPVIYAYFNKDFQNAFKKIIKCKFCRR

[22] = system: Mus musculus; assay: Effect on body temperature in mice at intraperitoneal dosage of 2 mg/kg, (compound administered 30 min before the test) after 90 min; assay type: functional
[23] = system: Mus musculus; assay: Effect on body temperature in mice at intraperitoneal dosage of 8 mg/kg, (compound administered 30 min before the test) after 30 min; assay type: functional
[24] = system: Mus musculus; assay: Effect on body temperature in mice at intraperitoneal dosage of 2 mg/kg, (compound administered 30 min before the test) after 60 min; assay type: functional
[25] = system: Rattus norvegicus; assay: Tested for the induction of lower lip retraction (LLR) by the investigated compounds in rat at dosage of 2 mg/kg; assay type: functional
[26] = system: Rattus norvegicus; assay: Tested for the effect on 8-OH-DPAT-induced lower lip retraction (LLR) in rat at dosage of 16 mg/kg; assay type: functional
[27] = system: Mus musculus; assay: Effect on body temperature in mice at intraperitoneal dosage of 4 mg/kg, (compound administered 30 min before the test) after 60 min; assay type: functional
[28] = system: Mus musculus; assay: Effect on body temperature in mice at intraperitoneal dosage of 8 mg/kg, (compound administered 30 min before the test) after 60 min; assay type: functional
[29] = system: Mus musculus; assay: Effect on 8-OH-DPAT-induced hypothermia in mice (5 mg/kg) at intraperitoneal dosage of 1 mg/kg of compound after 60 mins; assay type: functional
[30] = species on record: Rattus norvegicus; assay: Selectivity is the ratio between Ki values of 5-HT2 and 5-HT1A
[31] = system: Rattus norvegicus; assay: Tested for the induction of lower lip retraction (LLR) by the investigated compounds in rat at dosage of 8 mg/kg; assay type: functional
[32] = system: Mus musculus; assay: Effect on 8-OH-DPAT-induced hypothermia in mice (5 mg/kg) at intraperitoneal dosage of 4 mg/kg of compound after 15 mins; assay type: functional
[33] = system: Rattus norvegicus; assay: Tested for the effect on 8-OH-DPAT-induced behavior in reserpine pretreated rat against flat body posture at dosage of 2 mg/kg; assay type: functional
[34] = system: Mus musculus; assay: Effect on 8-OH-DPAT-induced hypothermia in mice (5 mg/kg) at intraperitoneal dosage of 8 mg/kg of compound after 15 mins; assay type: functional
[35] = system: Rattus norvegicus; assay: Tested for the effect on 8-OH-DPAT-induced behavior in reserpine pretreated rat against forepaw treading at dosage of 8 mg/kg; assay type: functional
[36] = system: Mus musculus; assay: Effect on 8-OH-DPAT-induced hypothermia in mice (5 mg/kg) at intraperitoneal dosage of 8 mg/kg of compound after 45 mins; assay type: functional
[37] = system: Rattus norvegicus; assay: Tested for the effect on 8-OH-DPAT-induced behavior in reserpine pretreated rat against forepaw treading at dosage of 16 mg/kg; assay type: functional
[38] = system: Mus musculus; assay: Effect on 8-OH-DPAT-induced hypothermia in mice (5 mg/kg) at intraperitoneal dosage of 1 mg/kg of compound after 30 mins; assay type: functional
[39] = system: Mus musculus; assay: Effect on 8-OH-DPAT-induced hypothermia in mice (5 mg/kg) at intraperitoneal dosage of 4 mg/kg of compound after 30 mins; assay type: functional

For `COc1ccccc1N1CCN(CCCn2nnc3ccccc32)CC1`, the Delta t [1] was 0 °C, the LLR score [2] was 2.3 and the Delta t [3] was 1.5 °C. The Delta t [4] was 0.6 °C, the Behavioral score [5] was 13.4 and the Delta t [6] was 0 °C. The Delta t [7] was 0 °C, the Delta t [8] was 0.4 °C and the LLR score [9] was 0.7. For the same compound, the Delta t [10] was 0.6 °C, the Delta t [11] was 0.3 °C and the Delta t [12] was 0.2 °C. It also gave an LLR score [13] of 0.6, an LLR score [14] of 0 and a Delta t [15] of 0 °C. It also gave a Delta t [16] of 0.4 °C, a Delta t [17] of 0.1 °C and a Ki [18] of 1040 nM. It also gave a Delta t [19] of 0.4 °C, a Behavioral score [20] of 6.1 and a Ki [21] of 15 nM. For the same compound, the Delta t [22] was 0.1 °C, the Delta t [23] was 0.4 °C and the Delta t [24] was 0.2 °C. For the same compound, the LLR score [25] was 0.1, the LLR score [26] was 0.9 and the Delta t [27] was 0.1 °C. For the same compound, the Delta t [28] was 0.1 °C, the Delta t [29] was 0.3 °C and the Selectivity [30] was 69. It also gave an LLR score [31] of 0.1, a Delta t [32] of 0.3 °C and a Behavioral score [33] of 14.8. For the same compound, the Delta t [34] was 0.3 °C, the Behavioral score [35] was 3.7 and the Delta t [36] was 0.7 °C. For the same compound, the Behavioral score [37] was 2.6, the Delta t [38] was 1.1 °C and the Delta t [39] was 0.1 °C.
